The conditions of series [1]: simulated intestinal fluid, pH 6.5.
For series [2] the following is noted: simulated gastric fluid, pH 1.8.
The conditions of series [3]: pH 6.5.

Molecules are shown by their SMILES.

One may read the amount remaining as what is left of the initial amount, in per cent. Low readings indicate a greater loss, high ones greater stability. `CC[C@H](C)[C@@H]1NC(=O)[C@@H]2CCCN2C(=O)[C@H](CO)NC(=O)[C@H](CCSC)NC(=O)[C@H](C)NC(=O)[C@H](CO)NC(=O)[C@@H]2CSSC[C@H](NC(=O)CN)C(=O)N[C@@H](CSSC[C@@H](C(N)=O)NC1=O)C(=O)N[C@@H](CO)C(=O)N[C@@H](Cc1cnc[nH]1)C(=O)N1CCC[C@H]1C(=O)N[C@@H](C(C)C)C(=O)N2` [TxID, α-Conotoxin TxID] registered a share remaining at 0.5 h in series [1] of 36.3 ± 2%. Also, the share remaining at 48 h in series [2] is 65.2 ± 2%. Further, in series [3], the “remaining amount in SIF after 2 h” value came out at 5.8 ± 2.0%.

These data come from PMC6627868 (Marine Drugs, 2019).
